{
  "source": "patent US6166290A",
  "about": "“Glutathione-S-conjugate transport in plants” (The Trustees of the University of Pennsylvania, priority 1997, dated 2000)",
  "key": {"[1]": {"biological_target": "T1, YCF1 (vacuolar membrane vesicles purified from DTY165 cells) (Saccharomyces cerevisiae, UniProt P39109)", "T1 construct": "endogenous in cells; host or cells: S. cerevisiae DTY165 (wild type YCF1), vacuolar membrane vesicles", "T1 sequence (P39109 whole entry)": "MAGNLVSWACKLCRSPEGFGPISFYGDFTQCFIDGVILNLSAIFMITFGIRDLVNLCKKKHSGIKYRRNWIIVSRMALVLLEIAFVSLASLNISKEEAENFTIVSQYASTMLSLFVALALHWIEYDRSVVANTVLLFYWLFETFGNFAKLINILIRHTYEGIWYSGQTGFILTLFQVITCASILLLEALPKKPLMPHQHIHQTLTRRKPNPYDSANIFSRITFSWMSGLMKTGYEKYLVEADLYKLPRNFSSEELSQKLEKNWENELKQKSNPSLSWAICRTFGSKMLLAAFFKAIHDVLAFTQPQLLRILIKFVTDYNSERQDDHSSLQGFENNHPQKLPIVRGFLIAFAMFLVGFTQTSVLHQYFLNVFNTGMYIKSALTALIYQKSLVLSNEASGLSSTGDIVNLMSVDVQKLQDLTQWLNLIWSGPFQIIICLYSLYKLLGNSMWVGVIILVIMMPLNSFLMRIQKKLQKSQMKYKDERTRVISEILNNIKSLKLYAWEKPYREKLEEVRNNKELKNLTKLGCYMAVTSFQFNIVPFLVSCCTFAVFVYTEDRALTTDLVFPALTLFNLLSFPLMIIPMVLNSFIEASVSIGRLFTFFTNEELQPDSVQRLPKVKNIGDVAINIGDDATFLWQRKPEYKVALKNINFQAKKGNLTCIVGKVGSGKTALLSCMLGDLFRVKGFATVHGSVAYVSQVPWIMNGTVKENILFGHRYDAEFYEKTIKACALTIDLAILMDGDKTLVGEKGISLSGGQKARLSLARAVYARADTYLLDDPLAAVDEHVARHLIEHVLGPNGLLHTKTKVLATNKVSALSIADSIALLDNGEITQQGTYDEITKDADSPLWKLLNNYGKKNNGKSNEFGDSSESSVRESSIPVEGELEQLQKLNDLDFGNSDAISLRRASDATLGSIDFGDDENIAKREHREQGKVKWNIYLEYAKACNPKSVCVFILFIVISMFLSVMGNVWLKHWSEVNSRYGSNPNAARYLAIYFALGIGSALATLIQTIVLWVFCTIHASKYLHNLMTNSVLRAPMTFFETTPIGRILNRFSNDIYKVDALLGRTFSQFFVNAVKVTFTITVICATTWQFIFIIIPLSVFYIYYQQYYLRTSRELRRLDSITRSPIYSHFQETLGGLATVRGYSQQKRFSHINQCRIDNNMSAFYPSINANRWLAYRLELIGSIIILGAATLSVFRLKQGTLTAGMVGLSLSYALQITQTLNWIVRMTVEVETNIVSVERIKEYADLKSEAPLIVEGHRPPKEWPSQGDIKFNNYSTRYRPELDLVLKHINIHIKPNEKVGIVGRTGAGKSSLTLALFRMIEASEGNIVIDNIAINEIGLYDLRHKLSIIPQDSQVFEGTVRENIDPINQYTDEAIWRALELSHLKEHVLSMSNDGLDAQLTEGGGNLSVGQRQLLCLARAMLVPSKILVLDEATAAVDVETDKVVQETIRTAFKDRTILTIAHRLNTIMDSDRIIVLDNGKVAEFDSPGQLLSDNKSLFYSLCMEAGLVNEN", "assay": "[3H]DNP-GS uptake by vacuolar membrane vesicles purified from DTY165 cells", "type": "biochemical", "settings": "for DNP-GS uptake plus the compound indicated: 3 mM MgATP (omitted with MgAMP-PNP), MgAMP-PNP 3 mM, bafilomycin A1 0.5 μM, FCCP 5 μM, gramicidin D 5 μM, NH4Cl 1 mM; for DNP-GS uptake as percentage of control plus the compound indicated: as Table 1 concentrations, 10 min", "procedure": "(§1) For the routine preparation of vacuolar membrane vesicles, 15 ml of stationary phase cultures of DTY165 or DTY167 were diluted into 1-liter volumes of fresh YPD medium, grown for 24 hours at 30° C. to an OD600 nm of approximately 0.8 and collected by centrifugation. After washing with distilled water, the cells were converted to spheroplasts with Zymolyase 20T (ICN) (Kim et al., 1994, supra) and intact vacuoles were isolated by flotation centrifugation of spheroplast lysates on Ficoll 400 step gradients as described by Roberts et al. (1991, Methods. Enzymol. 194:644-661). Both the spheroplast lysis buffer and Ficoll gradients contained 2 mg/ml bovine serum albumin, 1 μg/ml aprotinin, 1 μg/ml leupeptin, 1 μg/ml pepstatin, and 1 mM PMSF to minimize proteolysis. The resulting vacuole fraction was vesiculated in 5 mM MgCl2, 25 mM KCl, 10 mM Tris-Mes (pH 6.9) containing 2 mg/ml bovine serum albumin, 1 μg/ml aprotinin, 1 μg/ml leupeptin, 1 μg/ml pepstatin, and 1 mM PMSF, pelleted by centrifugation at 37,000× g for 25 min, and resuspended in suspension medium (1.1 M glycerol, 2 mM dithiothreitol, 1 mM Tris-EGTA, 2 mg/ml bovine serum albumin, 1 μg/ml aprotinin, 1 μg/ml leupeptin, 1 μg/ml pepstatin, 1 mM PMSF, 5 mM Tris-Mes, pH 7.6) (Kim et al., 1995, J. Biol. Chem. 270:2630-2635).\n(§2) Unless otherwise indicated, [^3 H]DNP-GS uptake was measured at 25° C. in 200 μl reaction volumes containing 3 mM ATP, 3 mM MgSO4, 5 μM gramicidin-D, 10 mM creatine phosphate, 16 units/ml creatine kinase, 50 mM KC 1, 1 mg/ml bovine serum albumin, 400 mM sorbitol, 25 mM Tris-Mes (pH 8.0), and 66.2 μM [^3 H]DNP-GS (8.7 mCi/mmol) (Li et al., 1995, supra). […] Uptake was initiated by the addition of vacuolar membrane vesicles (10-15 μg of membrane protein), brief mixing of the samples on a vortex mixer and uptake was then allowed to proceed for 1-60 minutes. Uptake was terminated by the addition of 1 ml of ice-cold wash medium (400 mM sorbitol, 3 mM Tris-Mes, pH 8.0) and vacuum filtration of the suspension through prewetted Millipore HA cellulose nitrate membrane filters (pore diameter, 0.45 μm). The filters were rinsed twice with 1 ml of ice-cold wash medium and air-dried, and radioactivity was determined by liquid scintillation counting in BCS mixture (Amersham Corp.). Nonenergized [^3 H]DNP-GS uptake and extravesicular solution trapped on the filters were enumerated by the same procedure except that ATP and Mg^2 +were omitted from the uptake medium."}, "[2]": {"system": "vacuolar membrane vesicles purified from DTY167 cells (ycf1Δ mutant)", "type": "biochemical, Saccharomyces cerevisiae", "settings": "for DNP-GS uptake plus the compound indicated: 3 mM MgATP (omitted with MgAMP-PNP), MgAMP-PNP 3 mM, bafilomycin A1 0.5 μM, FCCP 5 μM, gramicidin D 5 μM, NH4Cl 1 mM; for DNP-GS uptake as percentage of control plus the compound indicated: as Table 1 concentrations, 10 min", "procedure": "as §1, §2"}, "[3]": {"biological_target": "T1, YCF1 (vacuolar membrane vesicles purified from DTY165 cells)", "assay": "biochemical", "type": "biochemical", "settings": "for 109Cd.GS2 uptake plus addition: 50 μM 109Cd.GS2, bafilomycin A1 0.5 μM, FCCP 5 μM, gramicidin-D 5 μM, NH4Cl 1 mM; for 109Cd.GS2 uptake as percentage of control: as Table 7 concentrations, 10 min; for decrease of MgATP-dependent Cd.GS2 uptake: text to Table 7", "procedure": "(§3) In experiments involving cadmium transport, dithiothreitol and EGTA were removed from the suspension medium to prevent the attenuation of YCF1-dependent Cd^2+ transport otherwise exerted by these compounds. Vesiculated vacuolar membranes were subjected to three cycles of 50-fold dilution into simplified suspension medium (1.1 M glycerol, 5 mM Tris-Mes, pH 8.0), centrifugation at 100,000× g for 35 minutes and resuspension in the same medium before use.\n(§4) Singly radiolabeled ^109 Cd.GSn and doubly radio-labeled ^109 Cd[^3 H].GS^n complexes were prepared by sequential gel-filtrationand anion-exchange chromatography of the reaction products generated by incubating 20 mM ^109 CdSO4 (78.4 mCi/mmol) with 40 mM GSH or 40 mM [^3 H]GSH (240 mCi/mmol) in 15 ml 10 mM phosphate buffer (pH 8.0) containing 150 mM KNO3 at 45° C. for 24 hours. For gel-filtration, 2 ml aliquots of the reaction mixture were applied to a column (40×1.5 cm ID) packed with water-equilibrated Sephadex G-1 5, eluted with deionized water and ^109 Cd and/or ^3 H in the fractions was measured by liquid scintillation counting. The fractions encompassed by each of the two ^109 Cd.GSn peaks identified were pooled, lyophilized and redissolved in 4 ml of loading buffer (5 mM Tris-Mes, pH 8.0). For anion-exchange chromatography, 0.5 ml aliquots of the resuspended lyophilizates from gel-filtration chromatography were applied to a Mono-Q HR5/5 column (Pharmacia) equilibrated with the same buffer. Elution was with a linear gradient of NaCl (0.5 ml/minute; 0-500 mM) dissolved in loading buffer. The individual fractions corresponding to the major peaks of ^109 Cd obtained from the Mono-Q column (one each for the peaks resolved by gel-filtration chromatography) were pooled, lyophilized and resuspended in 4 ml deionized water after liquid scintillation counting.\n(§5) MgATP-energized, uncoupler-insensitive ^109 Cd^2+ uptake by vacuolar membrane vesicles was measured at 25° C. in 200 μl reaction volumes containing 3 mM ATP, 3 mM MgSO4, 5 μM gramicidin-D, 10 mM creatine phosphate, 16 units/ml creatine kinase, 50 mM KCl, 400 mM sorbitol, 25 mM Tris-Mes (pH 8.0) and the indicated concentrations of ^109 CdSO4, GSH or ^109 Cd- and/or ^3 H-labeled purified Cd.GSn complexes as described herein except that the wash media contained 100 μM CdSO4 in addition to sorbitol (400 mM) and Tris-Mes (3 mM, pH 8.0)."}, "[4]": {"system": "vacuolar membrane vesicles purified from DTY167 cells (ycf1Δ mutant)", "type": "biochemical, Saccharomyces cerevisiae", "settings": "for 109Cd.GS2 uptake plus addition: 50 μM 109Cd.GS2, bafilomycin A1 0.5 μM, FCCP 5 μM, gramicidin-D 5 μM, NH4Cl 1 mM; for 109Cd.GS2 uptake as percentage of control: as Table 7 concentrations, 10 min", "procedure": "as §3, §4, §5"}, "[5]": {"settings": "50 μM (as Cd), 5 μM gramicidin-D"}},
  "data": [
    {"molecule": "Cl.N", "note": "[NH4 Cl, Ammonium chloride]", "values": [
      {"measurement": "DNP-GS uptake plus the compound indicated", "setting": "[1]; 66.2 μM DNP-GS", "result": "69.1 ± 2.9", "unit": "nmol/mg/10 minutes"},
      {"measurement": "DNP-GS uptake as percentage of control plus the compound indicated", "setting": "[1]", "result": 88.9, "unit": "%"},
      {"measurement": "DNP-GS uptake plus the compound indicated", "setting": "[2]; 66.2 μM DNP-GS", "result": "14.9 ± 0.7", "unit": "nmol/mg/10 minutes"},
      {"measurement": "DNP-GS uptake as percentage of control plus the compound indicated", "setting": "[2]", "result": 96.8, "unit": "%"},
      {"measurement": "109Cd.GS2 uptake plus addition", "setting": "[3]", "result": "89.8 ± 8.2", "unit": "nmol/mg/10 minutes"},
      {"measurement": "109Cd.GS2 uptake as percentage of control", "setting": "[3]", "result": 84.8, "unit": "%"},
      {"measurement": "decrease of MgATP-dependent Cd.GS2 uptake", "setting": "[3]", "result": 15, "unit": "%"},
      {"measurement": "109Cd.GS2 uptake plus addition", "setting": "[4]", "result": "10.0 ± 1.7", "unit": "nmol/mg/10 minutes"},
      {"measurement": "109Cd.GS2 uptake as percentage of control", "setting": "[4]", "result": 57.8, "unit": "%"}
    ]},
    {"molecule": "mono(glutathionato)cadmium [LMW-Cd.GS]", "values": [
      {"measurement": "109Cd uptake of Mono-Q fraction", "setting": "[3]; [5]", "result": "4.4 ± 0.8", "unit": "nmol/mg/10 min"},
      {"measurement": "uptake of LMW-109Cd.GS", "setting": "[3]; all of the concentrations examined", "result": "negligible"},
      {"measurement": "109Cd uptake of Mono-Q fraction", "setting": "[4]; [5]", "result": 3.9, "unit": "nmol/mg/10 min"}
    ]},
    {"molecule": "CO/C1=C\\C(C)=C\\[C@@H](C)[C@@H](O)[C@@H](C)C/C(C)=C/C=C/[C@H](OC)[C@@H]([C@@H](C)[C@@H](O)[C@H](C)[C@@]2(O)C[C@@H](O)[C@H](C)[C@@H](C(C)C)O2)OC1=O", "note": "[Bafilomycin A1]", "values": [
      {"measurement": "DNP-GS uptake plus the compound indicated", "setting": "[1]; 66.2 μM DNP-GS", "result": "43.2 ± 1.0", "unit": "nmol/mg/10 minutes"},
      {"measurement": "DNP-GS uptake as percentage of control plus the compound indicated", "setting": "[1]", "result": 55.6, "unit": "%"},
      {"measurement": "DNP-GS uptake plus the compound indicated", "setting": "[2]; 66.2 μM DNP-GS", "result": "4.3 ± 0.3", "unit": "nmol/mg/10 minutes"},
      {"measurement": "DNP-GS uptake as percentage of control plus the compound indicated", "setting": "[2]", "result": 27.9, "unit": "%"},
      {"measurement": "109Cd.GS2 uptake plus addition", "setting": "[3]", "result": "81.8 ± 6.0", "unit": "nmol/mg/10 minutes"},
      {"measurement": "109Cd.GS2 uptake as percentage of control", "setting": "[3]", "result": 76.6, "unit": "%"},
      {"measurement": "decrease of MgATP-dependent Cd.GS2 uptake", "setting": "[3]", "result": 22, "unit": "%"},
      {"measurement": "109Cd.GS2 uptake plus addition", "setting": "[4]", "result": "12.8 ± 3.6", "unit": "nmol/mg/10 minutes"},
      {"measurement": "109Cd.GS2 uptake as percentage of control", "setting": "[4]", "result": 74.0, "unit": "%"}
    ]},
    {"molecule": "Nc1ncnc2c1ncn2[C@@H]1O[C@H](COP(=O)(O)OP(=O)(O)NP(=O)(O)O)[C@@H](O)[C@H]1O", "note": "[MgAMP-PNP]", "values": [
      {"measurement": "DNP-GS uptake plus the compound indicated", "setting": "[1]; 66.2 μM DNP-GS", "result": "2.5 ± 0.5", "unit": "nmol/mg/10 minutes"},
      {"measurement": "DNP-GS uptake as percentage of control plus the compound indicated", "setting": "[1]", "result": 3.2, "unit": "%"},
      {"measurement": "DNP-GS uptake plus the compound indicated", "setting": "[2]; 66.2 μM DNP-GS", "result": "1.4 ± 0.3", "unit": "nmol/mg/10 minutes"},
      {"measurement": "DNP-GS uptake as percentage of control plus the compound indicated", "setting": "[2]", "result": 9.1, "unit": "%"}
    ]},
    {"molecule": "MgATP", "values": [
      {"measurement": "Vmax(MgATP) of uncoupler-insensitive DNP-GS uptake", "setting": "[1]; 66.2 μM DNP-GS, 5 μM gramicidin D", "result": "38.4±5.6", "unit": "nmol/mg/10 minutes"},
      {"measurement": "DNP-GS uptake as percentage of control, MgATP omitted", "setting": "[1]; --MgATP, 66.2 μM DNP-GS", "result": 2.8, "unit": "%"},
      {"measurement": "DNP-GS uptake, MgATP omitted", "setting": "[1]; --MgATP, 66.2 μM DNP-GS", "result": "2.2 ± 0.4", "unit": "nmol/mg/10 minutes"},
      {"measurement": "Km", "setting": "[1]; read-out: Km(MgATP) of uncoupler-insensitive DNP-GS uptake, 66.2 μM DNP-GS, 5 μM gramicidin D, 10 minutes", "result": "86.5 ± 29.5", "unit": "µM"},
      {"measurement": "DNP-GS uptake as percentage of control, MgATP omitted", "setting": "[2]; --MgATP, 66.2 μM DNP-GS", "result": 9.7, "unit": "%"},
      {"measurement": "DNP-GS uptake, MgATP omitted", "setting": "[2]; --MgATP, 66.2 μM DNP-GS", "result": "1.5 ± 0.6", "unit": "nmol/mg/10 minutes"}
    ]}
  ]
}
